# Like-named read-outs stand apart in the source and are kept apart here.
# Experiments:
# [1] = test system: Substance P Induced Relaxation of the Pig Coronary Arteries; test: Antagonism of substance P induced relaxation of the pig coronary arteries; conditions: test compound concentration 3 × 10^-9 (unit not given), 30 min incubation
# Experimental: Antagonism of Substance P Induced Relaxation of the Pig Coronary Arteries
# Segments of coronary arteries taken from pigs (killed by injection of an overdose of sodium pentobarbital) were inverted and mounted for recording of isometric tension in organ baths (volume 20 ml) with the endothelium at the outside. The preparations were bathed in Krebs-Henseleit solution. The solution was kept at 37° C. and gassed with a mixture of O2 /CO2 (95/5). After stabilisation of the preparations, prostaglandin F2α (10^-5 M) was administered to induce a contraction. This was repeated until contractile responses became stable. Then prostaglandin F2α was again administered and substance P (3×10^-10 M and 10^-9 M cumulatively) was added. Substance P induced endothelium dependent relaxations. After washing away the agonists, a known concentration of a compound of formula (I) was added. After an incubation period of 30 minutes, prostaglandin F2α (10^-5 M) and the same concentrations of substance P as described above were again administered in the presence of the compound to be tested.
# [2] = test system: Substance P Induced Plasma Extravasation; test: Antagonism of substance P induced plasma extravasation in guinea-pigs; format: in vivo, guinea-pig; conditions: Cavia porcellus, sc, s.c., 1 hour prior to substance P
# Experimental: Antagonism of Substance P Induced Plasma Extravasation in Guinea-pigs
# Plasma travasation was induced by injection of substance P (2 mg/kg) in the femoral artery of female guinea-pigs. Evans Blue dye (30 mg/kg) was injected simultaneously. The test compound or solvent was administered subcutaneous (s.c.) or orally (p.o.) 1 hour prior to substance P injection. 10 minutes after challenge, the animals were checked for blue colouring (a direct measure for plasma extravasation) of the nose, the forepaws, and the conjunctiva. 30 minutes after challenge, the animals were sacrificed by CO2 gas inhalation and checked for blue colouring of the trachea and the urinary bladder. […]
# [3] = 10 min, conjunctiva, read-out: lowest active dose (LAD), conjunctiva
# [4] = 10 min, forepaws, read-out: lowest active dose (LAD), forepaws
# [5] = 10 min, nose, read-out: lowest active dose (LAD), nose
# [6] = 0.5 h, trachea, read-out: lowest active dose (LAD), trachea
# [7] = 0.5 h, urinary bladder, read-out: lowest active dose (LAD), urinary bladder
SMILES,% inhibition of the response to 10^-9 M substance P [1],other results
Cc1cc(C)cc(C(=O)N2CC[C@H](N3CCC(=C4c5ccccc5CCn5c4nc(CO)c5CO)CC3)C[C@@H]2Cc2ccccc2)c1 (relative stereo) [Compound 61],7.5%,
"Cc1cc(C)cc(C(=O)N2CC[C@@H](N3CCC4(CC3)c3ccccc3CCn3ccnc34)C[C@H]2Cc2ccccc2)c1 (relative stereo) [Compound 119, (±)-cis-4-(5,6-dihydrospiro[11H-imidazo[2,1-b][3]benzazepine-11,4'-piperidin]-1-yl)-1-(3,5-dimethylbenzoyl)-2-(phenylmethyl)piperidine]",9.3%,
O=C(c1cc(C(F)(F)F)cc(C(F)(F)F)c1)N1CC[C@H](N2CCC(C3c4ccccc4CCn4c3nc3ccccc34)CC2)C[C@H]1Cc1ccc(F)c(F)c1 (stereo partly shown) [Compound 68],93.1%,
O=C(c1cc(C(F)(F)F)cc(C(F)(F)F)c1)N1CC[C@@H](N2CCC(C3c4ccccc4Cn4ccnc43)CC2)C[C@@H]1Cc1ccccc1 (stereo partly shown) [Compound 116],69.6%,
"O=C(c1cc(C(F)(F)F)cc(C(F)(F)F)c1)N1CC[C@@H](N2CCC(C3c4ccccc4CCn4c3nc3ccccc34)CC2)C[C@@H]1Cc1ccc(Cl)c(Cl)c1 (mixture of isomers) [Compound 63, (±)-trans-1-[3,5-bis(trifluoromethyl)benzoyl]-2-[(3,4-dichlorophenyl)methyl]-4-[4-(11,12-dihydro-6H-benzimidazo[2,1-b][3]benzazepin-6-yl)-1-piperidinyl]piperidine]",61.4%,
Cc1cc(C)cc(C(=O)N2CC[C@@H](N3CCC(=C4c5ccccc5CCn5c(C=O)cnc54)CC3)C[C@H]2Cc2ccccc2)c1 (relative stereo) [Compound 24],38.3%,
O=C(c1cc(C(F)(F)F)cc(C(F)(F)F)c1)N1CC[C@@H](N2CCC(=C3c4ccccc4CCn4ccnc43)CC2)C[C@H]1Cc1ccccc1 (relative stereo) [Compound 23],13.4%,
Cc1cc(C)cc(C(=O)N2CC[C@H](N3CCC(=C4c5ccccc5CCn5c(Cl)cnc54)CC3)C[C@@H]2Cc2ccccc2)c1 (relative stereo) [Compound 43],16%,
O=C(c1ccc2[nH]ccc2c1)N1CC[C@@H](N2CCC(=C3c4ccccc4CCn4ccnc43)CC2)C[C@@H]1Cc1ccccc1 (relative stereo) [Compound 81],2.2%,
O=C(c1cc(C(F)(F)F)cc(C(F)(F)F)c1)N1CCC(N2CCC(=C3c4ccc(Cl)cc4CCn4ccnc43)CC2)CC1Cc1ccccc1 (stereo not shown) [Compound 32],71.6%,
Cc1ccc2c(c1)CCn1ccnc1C2=C1CCN([C@H]2CCN(C(=O)c3cc(C(F)(F)F)cc(C(F)(F)F)c3)[C@H](Cc3ccccc3)C2)CC1 (relative stereo) [Compound 51],86.3%,
O=C(Nc1cc(C(F)(F)F)cc(C(F)(F)F)c1)N1CC[C@@H](N2CCC(=C3c4ccccc4CCn4ccnc43)CC2)C[C@@H]1Cc1ccccc1 (relative stereo) [Compound 80],10.9%,
CC(C(=O)N1CCC(N2CCC(=C3c4ccccc4CCn4ccnc43)CC2)CC1Cc1ccccc1)c1ccccc1 (stereo not shown) [Compound 85],1.8%,
Cc1cc(C)cc(C(=O)N2CC[C@H](N3CCC(=C4c5ccc(C)cc5CCn5ccnc54)CC3)C[C@@H]2Cc2ccccc2)c1 (relative stereo) [Compound 56],9.5%,
O=C(c1cc2cc(F)ccc2[nH]1)N1CC[C@H](N2CCC(=C3c4ccccc4CCn4ccnc43)CC2)C[C@@H]1Cc1ccccc1 (relative stereo) [Compound 89],1.1%,
O=C(c1cc(C(F)(F)F)cc(C(F)(F)F)c1)N1CC[C@H](N2CCC3(CC2)c2ccccc2CCn2ccnc23)C[C@@H]1Cc1ccccc1 (relative stereo) [Compound 117],,"minimal effective dose [2, 3]: 2.5 mg/kg; minimal effective dose [2, 4]: 2.5 mg/kg; minimal effective dose [2, 5]: 2.5 mg/kg; minimal effective dose [2, 6]: 40 mg/kg; minimal effective dose [2, 7]: 10 mg/kg"
O=C(c1ccco1)N1CC[C@@H](N2CCC(=C3c4ccccc4CCn4ccnc43)CC2)C[C@@H]1Cc1ccccc1 (relative stereo) [Compound 77],3.2%,
O=C(c1ccc2ccccc2c1)N1CCC(N2CCC(C3c4ccccc4Cn4c3nc3ccccc34)CC2)CC1Cc1ccccc1 (stereo not shown) [Compound 92],6.7%,

SMILES,% inhibition of the response to 10^-9 M substance P [1],other results
Cc1cc(C)cc(C(=O)N2CC[C@H](N3CCC(C4c5ccccc5Cn5c4nc4ccccc45)CC3)C[C@H]2Cc2ccccc2)c1 (stereo partly shown) [Compound 70],31.2%,
O=C(c1cc(C(F)(F)F)cc(C(F)(F)F)c1)N1CC[C@H](N2CCC(=C3c4ccccc4CCn4c3nc3ccccc34)CC2)C[C@@H]1Cc1ccccc1 (relative stereo) [Compound 71],53.1%,
COC(=O)c1cnc2n1CCc1ccccc1C2=C1CCN([C@H]2CCN(C(=O)c3cc(C)cc(C)c3)[C@@H](Cc3ccccc3)C2)CC1 (relative stereo) [Compound 40],8.4%,
O=C(c1cccs1)N1CCC(N2CCC(C3c4ccccc4Cn4c3nc3ccccc34)CC2)CC1Cc1ccccc1 (stereo not shown) [Compound 91],9.2%,
Cc1cc(C)cc(C(=O)N2CCC(N3CCC(=C4c5cccc(C)c5CCn5ccnc54)CC3)CC2Cc2ccccc2)c1 (stereo not shown) [Compound 29],8.1%,
Cc1cc(C)cc(C(=O)N2CCC(N3CCC(C4c5ccccc5Cn5c4nc4ccccc45)CC3)CC2Cc2ccccc2)c1 (stereo not shown) [Compound 69],8%,
O=C(c1ccc2ncsc2c1)N1CC[C@@H](N2CCC(C3c4ccccc4Cn4c3nc3ccccc34)CC2)C[C@@H]1Cc1ccccc1 (stereo partly shown) [Compound 102],17%,
O=C(c1cc(C(F)(F)F)cc(C(F)(F)F)c1)N1CC[C@H](N2CCC(=C3c4ccccc4CCn4c(Cl)cnc43)CC2)C[C@@H]1Cc1ccccc1 (relative stereo) [Compound 62],49.0%,
Cc1cc(C)cc(C(=O)N2CC[C@H](N3CCC(=C4c5ccccc5CCn5c4nc4ccccc45)CC3)C[C@H]2Cc2ccccc2)c1 (relative stereo) [Compound 46],54.3%,
O=C(c1cc(C(F)(F)F)cc(C(F)(F)F)c1)N1CC[C@H](N2CCC(=C3c4ccccc4CCn4c(Cl)cnc43)CC2)C[C@H]1Cc1ccccc1 (relative stereo) [Compound 58],91.5%,
Cc1cc(C)cc(C(=O)N2CCC(N3CCC(=C4c5ccccc5CCn5c(C)cnc54)CC3)CC2Cc2ccccc2)c1 (stereo not shown) [Compound 28],37.4%,
Cc1cc(C)cc(C(=O)N2CC[C@H](N3CCC(=C4c5ccccc5CCn5c4nc4ccccc45)CC3)C[C@@H]2Cc2ccccc2)c1 (relative stereo) [Compound 45],7.9%,
Cc1cc(C)cc(C(=O)N2CC[C@H](N3CCC(=C4c5ccccc5CCn5c(Cl)cnc54)CC3)C[C@H]2Cc2ccccc2)c1 (relative stereo) [Compound 44],63.9%,
Cc1c(C(=O)N2CC[C@@H](N3CCC(C4c5ccccc5Cn5c4nc4ccccc45)CC3)C[C@@H]2Cc2ccccc2)oc2ccccc12 (stereo partly shown) [Compound 101],11.8%,
O=C(c1cc(C(F)(F)F)cc(C(F)(F)F)c1)N1CC[C@H](N2CCC(C3c4ccccc4CCn4c3nc3ccccc34)CC2)C[C@H]1Cc1ccccc1 (stereo partly shown) [Compound 13],74.2%,
O=C(c1ccccc1)N1CC[C@@H](N2CCC(C3c4ccccc4Cn4c3nc3ccccc34)CC2)C[C@@H]1Cc1ccccc1 (stereo partly shown) [Compound 75],13.7%,
O=C(c1cc(C(F)(F)F)cc(C(F)(F)F)c1)N1CC[C@@H](N2CCC3(CC2)c2ccccc2CCn2ccnc23)C[C@@H]1Cc1ccccc1 (relative stereo) [Compound 118],,"minimal effective dose [2, 3]: 10 mg/kg; minimal effective dose [2, 4]: 10 mg/kg; minimal effective dose [2, 5]: 10 mg/kg; minimal effective dose [2, 6]: 10 mg/kg; minimal effective dose [2, 7]: 10 mg/kg"

# From patent US6251894A, “1-(1,2-disubstituted piperidinyl)-4 (fused imidazole)-piperidine derivatives” (Janssen Pharmaceuticals N.V., priority 1995, dated 2001)
